Test results from ChEMBL document CHEMBL5120882, “Medicinal Chemistry Perspective on Targeting Mono-ADP-Ribosylating PARPs with Small Molecules” (J Med Chem, 2022).

Key:
[1] = target: T1, Poly [ADP-ribose] polymerase tankyrase-1 (Homo sapiens, UniProt O95271); experiment: Inhibition of N-terminal his-tagged human TNKS1 expressed in Escherichia coli Rosette2 (DE3)
T1 sequence (O95271 whole entry): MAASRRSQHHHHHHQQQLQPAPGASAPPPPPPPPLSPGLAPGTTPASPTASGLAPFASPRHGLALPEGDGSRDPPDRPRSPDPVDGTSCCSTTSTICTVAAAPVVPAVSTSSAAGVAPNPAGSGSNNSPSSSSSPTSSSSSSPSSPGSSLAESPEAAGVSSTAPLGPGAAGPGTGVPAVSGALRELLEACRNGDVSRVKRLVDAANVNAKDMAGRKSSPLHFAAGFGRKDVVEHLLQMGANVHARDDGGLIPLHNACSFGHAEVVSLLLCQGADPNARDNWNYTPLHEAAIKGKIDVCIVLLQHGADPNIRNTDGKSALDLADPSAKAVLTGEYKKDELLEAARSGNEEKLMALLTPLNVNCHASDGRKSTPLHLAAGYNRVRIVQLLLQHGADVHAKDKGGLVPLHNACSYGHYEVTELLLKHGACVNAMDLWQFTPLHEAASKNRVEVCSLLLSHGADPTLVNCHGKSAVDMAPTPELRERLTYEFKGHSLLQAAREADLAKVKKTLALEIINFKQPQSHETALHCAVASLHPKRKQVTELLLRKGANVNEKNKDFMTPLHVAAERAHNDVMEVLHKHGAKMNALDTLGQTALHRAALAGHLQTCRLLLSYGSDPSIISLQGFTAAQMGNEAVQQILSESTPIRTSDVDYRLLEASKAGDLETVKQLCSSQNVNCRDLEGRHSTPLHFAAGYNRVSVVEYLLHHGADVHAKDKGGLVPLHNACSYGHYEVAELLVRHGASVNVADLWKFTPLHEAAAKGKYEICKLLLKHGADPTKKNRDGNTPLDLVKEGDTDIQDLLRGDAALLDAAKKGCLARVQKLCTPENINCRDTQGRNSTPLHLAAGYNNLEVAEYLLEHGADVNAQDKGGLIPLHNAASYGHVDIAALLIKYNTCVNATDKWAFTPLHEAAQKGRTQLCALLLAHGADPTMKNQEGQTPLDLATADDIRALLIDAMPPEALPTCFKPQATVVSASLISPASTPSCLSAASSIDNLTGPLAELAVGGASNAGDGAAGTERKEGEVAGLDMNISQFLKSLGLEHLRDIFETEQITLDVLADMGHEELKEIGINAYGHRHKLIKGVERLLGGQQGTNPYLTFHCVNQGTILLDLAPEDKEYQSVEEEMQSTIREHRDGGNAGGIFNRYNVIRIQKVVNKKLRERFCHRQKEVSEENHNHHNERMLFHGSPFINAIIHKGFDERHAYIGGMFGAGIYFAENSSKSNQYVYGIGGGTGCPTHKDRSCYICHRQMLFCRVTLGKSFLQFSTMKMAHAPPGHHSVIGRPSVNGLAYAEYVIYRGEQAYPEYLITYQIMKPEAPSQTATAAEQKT

[2] = target: T2, Protein mono-ADP-ribosyltransferase PARP15 (Homo sapiens, UniProt Q460N3); experiment: Inhibition of N-terminal his-tagged human PARP15 expressed in Escherichia coli Rosette2 (DE3)
T2 sequence (Q460N3 whole entry): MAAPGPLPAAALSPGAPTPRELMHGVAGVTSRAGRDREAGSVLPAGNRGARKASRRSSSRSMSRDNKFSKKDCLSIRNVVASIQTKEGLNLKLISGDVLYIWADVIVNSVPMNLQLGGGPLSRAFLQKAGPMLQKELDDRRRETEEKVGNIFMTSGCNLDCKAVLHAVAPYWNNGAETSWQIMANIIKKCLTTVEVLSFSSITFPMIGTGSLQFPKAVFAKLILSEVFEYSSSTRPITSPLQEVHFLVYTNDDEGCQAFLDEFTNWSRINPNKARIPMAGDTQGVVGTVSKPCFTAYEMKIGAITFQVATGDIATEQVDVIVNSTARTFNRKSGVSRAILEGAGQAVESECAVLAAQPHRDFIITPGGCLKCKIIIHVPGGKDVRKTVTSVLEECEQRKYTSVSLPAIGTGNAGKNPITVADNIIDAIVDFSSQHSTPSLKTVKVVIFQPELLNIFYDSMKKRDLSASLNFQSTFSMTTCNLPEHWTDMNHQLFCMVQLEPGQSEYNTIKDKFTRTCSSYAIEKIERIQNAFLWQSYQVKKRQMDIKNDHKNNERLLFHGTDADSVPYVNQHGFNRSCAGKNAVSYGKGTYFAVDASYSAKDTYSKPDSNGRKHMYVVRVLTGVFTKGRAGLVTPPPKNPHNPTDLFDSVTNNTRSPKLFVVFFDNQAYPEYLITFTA

Row | Structure (SMILES) | IC50 [1] | IC50 [2]
1 | NC(=O)c1ccc(Oc2cccc(C(N)=O)c2)cc1 | 21 µM | 1.7 µM
2 | N#Cc1ccc(Oc2ccc(C(N)=O)cc2)cc1 | > 100 µM | 11 µM
